Test results from the NIST ThermoML archive (doi:10.1016/j.jct.2005.12.004).
± gives the expanded uncertainty stated by the source.

Legend:
[1] = DTA
[2] = Molar enthalpy of transition or fusion; conditions: DSC

SMILES | Normal melting temperature ([1]; Crystal) | Molar enthalpy of transition or fusion ([2]; Crystal) | Normal melting temperature ([1]; Crystal 1) | Triple point temperature ([1]; Crystal 2) | Molar enthalpy of transition or fusion ([2]; Crystal 1) | Molar enthalpy of transition or fusion ([2]; Crystal 2)
NCCCCCCCCN [1,8-diaminooctane] | 51.73 ± 0.53 °C | 12.1 ± 0.287 kcal/mol |  |  |  | 
c1ccc(-c2ccccc2)cc1 [biphenyl] | 69.22 ± 0.53 °C | 4.71 ± 0.215 kcal/mol |  |  |  | 
NCCCCCCCCCN [1,9-diaminononane] |  |  | 34.62 ± 0.53 °C | 301.14 ± 0.53 K | 8.47 ± 0.263 kcal/mol | 2.05 ± 0.201 kcal/mol
NCCCCCCN [1,6-hexanediamine] | 38.5 ± 0.53 °C | 9.41 ± 0.263 kcal/mol |  |  |  | 
NCCCCCCCCCCCCN [1,12-dodecanediamine] | 68.69 ± 0.53 °C | 16 ± 0.359 kcal/mol |  |  |  | 
